# Measurements: publication PMC11062922 (Nature Chemical Biology, 2023)
# Where two headings read alike, the source gives them in different places.
# Columns and labels:
# ACOX1 = molecular target: T1, ACOX1 (Homo sapiens, UniProt Q15067); experiment: Kinobeads two-dose competition binding: ACOX1; conditions: sheet CATDS matrix 2; Gene Name ACOX1;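 also: competition of compounds with immobilized broad-spectrum kinase inhibitor beads in cell lysate at 100 and 1,000 nM, 45 min at 4 °C, bead-bound protein quantified by label-free MS versus DMSO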
# T1 construct: endogenous in cells
# T1 sequence (Q15067 1-660): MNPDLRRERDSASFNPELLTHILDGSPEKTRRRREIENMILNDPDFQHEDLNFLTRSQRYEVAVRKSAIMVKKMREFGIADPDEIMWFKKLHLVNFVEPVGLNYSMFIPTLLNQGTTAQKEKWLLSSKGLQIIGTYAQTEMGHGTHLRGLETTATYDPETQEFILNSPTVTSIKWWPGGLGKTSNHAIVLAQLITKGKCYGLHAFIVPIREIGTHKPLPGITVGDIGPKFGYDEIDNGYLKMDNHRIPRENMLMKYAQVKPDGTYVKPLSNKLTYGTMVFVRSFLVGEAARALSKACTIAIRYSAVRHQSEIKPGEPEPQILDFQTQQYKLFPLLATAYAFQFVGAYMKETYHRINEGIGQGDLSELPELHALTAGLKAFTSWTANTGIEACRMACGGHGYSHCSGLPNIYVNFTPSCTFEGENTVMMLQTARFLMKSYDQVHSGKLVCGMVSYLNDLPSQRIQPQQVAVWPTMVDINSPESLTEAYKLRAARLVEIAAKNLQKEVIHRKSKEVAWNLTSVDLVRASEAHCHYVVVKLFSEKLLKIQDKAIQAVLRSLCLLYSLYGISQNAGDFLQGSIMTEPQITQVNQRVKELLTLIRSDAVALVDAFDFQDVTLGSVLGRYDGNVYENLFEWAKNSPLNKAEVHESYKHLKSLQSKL
# AAK1 = molecular target: T2, AAK1 (Homo sapiens, UniProt Q2M2I8); experiment: Kinobeads two-dose competition binding: AAK1; conditions: for CATDS: sheet CATDS matrix 2, Gene Name AAK1;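 as to all read-outs here: kinobeads competition pulldown from cell lysate, compound preincubated 45 min at 4 °C, bead-bound protein measured by label-free mass spectrometry against DMSO vehicle control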
# T2 construct: to maximize the representation of endogenous proteins; endogenous in cells
# ABL1 [1] = molecular target: T3, ABL1 (Homo sapiens, UniProt P00519); experiment: Kinobeads two-dose competition binding: ABL1; conditions: sheet CATDS matrix 2; Gene Name ABL1
# ABL2 [2] = molecular target: T4, ABL2 (Homo sapiens, UniProt P42684); experiment: Kinobeads two-dose competition binding: ABL2; conditions: sheet CATDS matrix 2; Gene Name ABL2
# T4 construct: endogenous in cells
# ACAD11 = molecular target: T5, ACAD11 (Homo sapiens, UniProt Q709F0); experiment: Kinobeads two-dose competition binding: ACAD11; conditions: sheet CATDS matrix 2; Gene Name ACAD11
# T5 construct: endogenous in cells
# T5 sequence (Q709F0 1-780): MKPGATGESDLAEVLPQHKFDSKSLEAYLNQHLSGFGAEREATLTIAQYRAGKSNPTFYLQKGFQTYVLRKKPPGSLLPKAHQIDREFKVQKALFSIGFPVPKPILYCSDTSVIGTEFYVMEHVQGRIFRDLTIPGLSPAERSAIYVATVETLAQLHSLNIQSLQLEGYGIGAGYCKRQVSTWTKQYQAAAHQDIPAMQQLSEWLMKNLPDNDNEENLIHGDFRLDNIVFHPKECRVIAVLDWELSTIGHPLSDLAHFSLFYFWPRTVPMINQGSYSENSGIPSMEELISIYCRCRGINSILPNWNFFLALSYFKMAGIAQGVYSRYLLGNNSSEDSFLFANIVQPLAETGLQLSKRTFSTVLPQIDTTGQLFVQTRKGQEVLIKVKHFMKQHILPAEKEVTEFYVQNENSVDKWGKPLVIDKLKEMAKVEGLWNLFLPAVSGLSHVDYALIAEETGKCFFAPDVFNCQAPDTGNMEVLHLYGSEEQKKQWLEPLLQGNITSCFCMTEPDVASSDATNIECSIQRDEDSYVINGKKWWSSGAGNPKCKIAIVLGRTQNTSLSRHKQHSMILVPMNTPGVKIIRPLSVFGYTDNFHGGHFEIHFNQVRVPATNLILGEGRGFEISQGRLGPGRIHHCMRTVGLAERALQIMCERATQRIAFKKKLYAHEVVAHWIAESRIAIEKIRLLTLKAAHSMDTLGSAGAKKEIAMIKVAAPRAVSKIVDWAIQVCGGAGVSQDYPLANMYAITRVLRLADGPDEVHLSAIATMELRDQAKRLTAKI
# PKN3 = PKN3 (Homo sapiens, UniProt Q6P5Z2); experiment: NanoBRET in-cell target engagement in HEK293T cells: PKN3; assay type: cell-based; set-up: full-length PKN3, CSNK2A1 or CSNK2A2 ORF; host or cells: HEK293T;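 also: Full-length PKN3 with C-terminal NanoLuc expressed in HEK293T cells, serial inhibitor dilutions competing against Kinase Tracer K5 at 500 nM, BRET read after 2 h at 37 °C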
# ABL1 [3] = molecular target: T3, ABL1; experiment: Kinobeads two-dose competition binding: ABL1; conditions: sheet "Kinobeads Drugmatrix - all"; unit inferred; read-out: Kinobeads Drugmatrix - all: apparent Kd, ABL1
# ABL2 [4] = molecular target: T4, ABL2; experiment: Kinobeads two-dose competition binding: ABL2; conditions: sheet "Kinobeads Drugmatrix - all"; unit inferred; read-out: Kinobeads Drugmatrix - all: apparent Kd, ABL2
# [5] = HEK293T cells, in-cell target engagement, read-out: IC50 PKN3 NanoBRET
# [6] = average of replicates, read-out: Average of IC50 values NanoBRET PKN3
# [7] = biological replicate number 1, read-out: Rep 1 IC50 NanoBRET PKN3
# [8] = biological replicate number 2, read-out: Rep 2 IC50 NanoBRET PKN3
# [9] = biological replicate number 3, read-out: Rep 3 IC50 NanoBRET PKN3
# [10] = biological replicate number 4, read-out: Rep 4 IC50 NanoBRET PKN3
# T2 sequence (Q2M2I8 whole entry): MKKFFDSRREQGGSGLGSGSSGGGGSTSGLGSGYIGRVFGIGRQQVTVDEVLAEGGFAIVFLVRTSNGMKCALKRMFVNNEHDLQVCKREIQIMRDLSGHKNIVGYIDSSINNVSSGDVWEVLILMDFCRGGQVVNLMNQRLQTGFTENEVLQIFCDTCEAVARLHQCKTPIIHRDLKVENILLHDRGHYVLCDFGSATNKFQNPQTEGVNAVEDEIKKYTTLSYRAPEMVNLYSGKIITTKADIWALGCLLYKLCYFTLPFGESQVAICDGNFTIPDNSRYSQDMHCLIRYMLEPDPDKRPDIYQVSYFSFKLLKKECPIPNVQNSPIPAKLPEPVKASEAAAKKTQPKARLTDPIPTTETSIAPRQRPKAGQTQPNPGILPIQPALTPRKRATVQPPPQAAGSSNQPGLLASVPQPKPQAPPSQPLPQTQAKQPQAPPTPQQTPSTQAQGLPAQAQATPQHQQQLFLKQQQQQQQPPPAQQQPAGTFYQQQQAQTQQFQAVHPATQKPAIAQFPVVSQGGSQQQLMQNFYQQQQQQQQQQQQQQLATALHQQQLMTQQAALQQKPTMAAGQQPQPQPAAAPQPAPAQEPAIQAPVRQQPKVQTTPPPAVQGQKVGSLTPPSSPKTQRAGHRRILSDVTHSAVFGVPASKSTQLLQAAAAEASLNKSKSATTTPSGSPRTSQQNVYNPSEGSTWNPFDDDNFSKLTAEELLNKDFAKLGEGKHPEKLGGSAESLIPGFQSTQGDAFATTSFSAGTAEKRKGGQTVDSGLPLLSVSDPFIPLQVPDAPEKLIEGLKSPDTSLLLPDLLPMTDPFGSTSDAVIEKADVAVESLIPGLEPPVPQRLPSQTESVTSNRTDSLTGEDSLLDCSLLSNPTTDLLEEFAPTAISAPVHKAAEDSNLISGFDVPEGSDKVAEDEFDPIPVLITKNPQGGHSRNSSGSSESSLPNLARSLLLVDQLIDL
# T4 sequence (P42684 whole entry): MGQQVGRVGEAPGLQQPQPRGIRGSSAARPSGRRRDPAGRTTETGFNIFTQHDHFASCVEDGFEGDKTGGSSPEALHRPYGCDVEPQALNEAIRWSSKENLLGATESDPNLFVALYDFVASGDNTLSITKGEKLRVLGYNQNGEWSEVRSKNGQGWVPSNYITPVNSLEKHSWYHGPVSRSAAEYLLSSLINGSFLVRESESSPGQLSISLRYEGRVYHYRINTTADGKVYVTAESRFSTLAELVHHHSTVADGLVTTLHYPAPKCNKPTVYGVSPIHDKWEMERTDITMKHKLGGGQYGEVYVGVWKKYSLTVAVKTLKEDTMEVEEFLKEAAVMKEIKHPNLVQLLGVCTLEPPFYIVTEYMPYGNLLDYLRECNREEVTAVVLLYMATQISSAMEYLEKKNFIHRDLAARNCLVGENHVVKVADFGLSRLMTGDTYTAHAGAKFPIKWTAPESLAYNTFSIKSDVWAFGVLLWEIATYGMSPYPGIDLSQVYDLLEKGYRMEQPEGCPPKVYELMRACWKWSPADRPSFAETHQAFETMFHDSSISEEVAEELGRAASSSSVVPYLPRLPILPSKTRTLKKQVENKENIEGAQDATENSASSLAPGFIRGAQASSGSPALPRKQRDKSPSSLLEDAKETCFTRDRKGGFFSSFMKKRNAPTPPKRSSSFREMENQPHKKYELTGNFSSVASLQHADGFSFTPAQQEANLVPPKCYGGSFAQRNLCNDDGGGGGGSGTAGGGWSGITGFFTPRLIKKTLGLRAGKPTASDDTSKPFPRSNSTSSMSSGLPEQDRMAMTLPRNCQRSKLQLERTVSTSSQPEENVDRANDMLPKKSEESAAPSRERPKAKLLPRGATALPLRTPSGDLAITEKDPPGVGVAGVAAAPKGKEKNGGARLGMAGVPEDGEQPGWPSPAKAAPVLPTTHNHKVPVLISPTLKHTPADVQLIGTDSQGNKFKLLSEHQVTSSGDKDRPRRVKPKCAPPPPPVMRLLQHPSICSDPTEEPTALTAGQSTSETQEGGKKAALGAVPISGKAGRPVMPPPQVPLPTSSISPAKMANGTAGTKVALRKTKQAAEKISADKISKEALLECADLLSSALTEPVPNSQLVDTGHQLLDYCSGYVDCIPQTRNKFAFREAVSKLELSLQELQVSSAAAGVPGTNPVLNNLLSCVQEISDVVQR
# T3 sequence (P00519 28-1130 limits assumed): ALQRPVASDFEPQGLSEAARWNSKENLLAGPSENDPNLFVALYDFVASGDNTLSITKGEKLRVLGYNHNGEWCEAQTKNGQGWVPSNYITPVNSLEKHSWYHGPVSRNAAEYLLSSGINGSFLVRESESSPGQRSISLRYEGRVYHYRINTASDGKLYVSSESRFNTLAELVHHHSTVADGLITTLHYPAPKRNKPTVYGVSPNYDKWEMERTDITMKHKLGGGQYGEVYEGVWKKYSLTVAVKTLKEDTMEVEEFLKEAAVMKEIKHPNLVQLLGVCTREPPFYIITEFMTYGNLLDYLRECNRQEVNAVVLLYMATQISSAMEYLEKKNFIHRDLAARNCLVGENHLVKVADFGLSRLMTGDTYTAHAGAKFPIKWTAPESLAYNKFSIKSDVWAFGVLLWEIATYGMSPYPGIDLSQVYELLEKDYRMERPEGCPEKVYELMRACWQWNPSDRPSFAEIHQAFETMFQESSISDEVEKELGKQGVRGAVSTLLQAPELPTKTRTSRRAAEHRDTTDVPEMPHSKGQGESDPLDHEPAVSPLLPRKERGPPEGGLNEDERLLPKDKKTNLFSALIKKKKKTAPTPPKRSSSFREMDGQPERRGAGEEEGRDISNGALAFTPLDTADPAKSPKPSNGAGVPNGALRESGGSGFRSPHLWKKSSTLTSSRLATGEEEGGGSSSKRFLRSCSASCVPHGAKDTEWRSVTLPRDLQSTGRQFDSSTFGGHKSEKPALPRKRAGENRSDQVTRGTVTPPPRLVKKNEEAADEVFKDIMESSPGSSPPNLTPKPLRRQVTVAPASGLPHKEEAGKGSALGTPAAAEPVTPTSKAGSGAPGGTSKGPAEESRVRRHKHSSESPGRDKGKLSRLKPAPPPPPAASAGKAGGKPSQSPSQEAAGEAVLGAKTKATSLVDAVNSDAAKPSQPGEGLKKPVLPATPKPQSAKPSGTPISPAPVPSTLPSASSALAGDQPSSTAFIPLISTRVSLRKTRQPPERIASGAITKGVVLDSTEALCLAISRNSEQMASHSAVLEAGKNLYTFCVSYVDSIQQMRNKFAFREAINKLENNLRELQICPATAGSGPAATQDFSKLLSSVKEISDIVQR
# PKN3, sequence (Q6P5Z2 whole entry): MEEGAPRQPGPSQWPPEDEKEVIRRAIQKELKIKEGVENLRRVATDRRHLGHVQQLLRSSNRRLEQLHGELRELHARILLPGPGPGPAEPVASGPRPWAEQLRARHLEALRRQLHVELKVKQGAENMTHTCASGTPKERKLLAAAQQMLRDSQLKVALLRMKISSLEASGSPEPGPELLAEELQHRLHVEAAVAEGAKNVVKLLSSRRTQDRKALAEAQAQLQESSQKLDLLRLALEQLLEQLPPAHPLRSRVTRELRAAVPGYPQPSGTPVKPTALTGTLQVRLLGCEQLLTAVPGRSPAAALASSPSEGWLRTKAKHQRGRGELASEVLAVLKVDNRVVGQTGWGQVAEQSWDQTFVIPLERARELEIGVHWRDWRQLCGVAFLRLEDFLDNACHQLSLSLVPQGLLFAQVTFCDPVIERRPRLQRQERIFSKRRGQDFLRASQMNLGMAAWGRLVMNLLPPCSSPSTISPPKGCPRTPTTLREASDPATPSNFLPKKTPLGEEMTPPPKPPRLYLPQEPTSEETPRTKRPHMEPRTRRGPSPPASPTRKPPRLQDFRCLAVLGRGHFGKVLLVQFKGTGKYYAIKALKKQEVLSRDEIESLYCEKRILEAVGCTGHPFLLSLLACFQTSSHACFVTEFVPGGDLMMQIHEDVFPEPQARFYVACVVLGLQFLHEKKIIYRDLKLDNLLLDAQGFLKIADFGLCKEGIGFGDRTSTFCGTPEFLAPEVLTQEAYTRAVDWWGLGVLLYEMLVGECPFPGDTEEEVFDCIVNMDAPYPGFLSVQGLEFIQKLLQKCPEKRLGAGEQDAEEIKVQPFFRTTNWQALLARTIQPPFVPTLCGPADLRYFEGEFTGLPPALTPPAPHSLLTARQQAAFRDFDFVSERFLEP
SMILES,CATDS (ACOX1),CATDS (AAK1),CATDS (ABL1 [1]),CATDS (ABL2 [2]),CATDS (ACAD11),IC50 (PKN3; [5]),potency estimated from few doses (ABL1 [3]),potency estimated from few doses (ABL2 [4]),IC50 (PKN3; [6]),IC50 (PKN3; [7]),IC50 (PKN3; [8]),IC50 (PKN3; [9]),IC50 (PKN3; [10]),"potency estimated from few doses (AAK1; read-out: Kinobeads Drugmatrix - all: apparent Kd, AAK1)"
"NC[C@@](O)(c1ccc(Cl)cc1)c1ccc(-c2cn[nH]c2)cc1 [AT-13148, reference compound]",0,0,0,0,0,2060 nM,–,–,–,–,–,–,–,–
COc1cc2nccc(Nc3ccc(Oc4ccccc4)cc3)c2cc1OC [GI261656A],0,0,0.04923,0,0,–,661 nM,–,–,–,–,–,–,–
COc1cc2ncn(-c3cc(OCCCc4ccccc4)c(C(N)=O)s3)c2cc1OC [GSK205189A],0,0,0,0.03238,0,–,–,956 nM,–,–,–,–,–,–
CCn1c(-c2nonc2N)nc2c(-c3ccccc3)ncc(OCCCN)c21 [GSK260205A],–,–,–,–,–,74 nM,–,–,22.3 nM,73.6 nM,6.19 nM,6.22 nM,3.37 nM,–
CCn1c(-c2nonc2N)nc2c(C#CCN)ncc(OCCCN)c21 [GSK561866B],–,–,–,–,–,–,–,–,7970 nM,12900 nM,11200 nM,4910 nM,2820 nM,–
CCn1c(-c2nonc2N)nc2c(C#CC(C)(C)O)nc(OC[C@@H](N)c3ccccc3)cc21 [GSK938890A],–,–,–,–,–,–,–,–,97.8 nM,310 nM,31.2 nM,28.1 nM,22.3 nM,–
CCn1c(-c2nonc2N)nc2c(C#CC(C)(C)O)nc(CN3CCCC3)cc21 [GSK1000163A],0,0,0,0,0,11000 nM,–,–,6970 nM,11100 nM,9200 nM,6130 nM,1430 nM,–
CNC(=O)c1ccccc1Nc1nc(Nc2ccc(N3CCOCC3)cc2)ncc1Cl [GSK1576028A],0,0.02054,0,0,0,–,> 1000 nM,–,–,–,–,–,–,142 nM
O=c1cc(N2CCOCC2)nc2n(Cc3cccc(C(F)(F)F)c3)ccn12 [GSK2297543A],0,0,0,0,0,–,–,–,–,–,–,–,–,–
CNc1nc(-c2ccc3c(N)n[nH]c3c2)cc(N2C[C@@H](C(=O)Nc3ccccc3)CC[C@H]2C)n1 [GSK2298859A],0,0,0,0,0,–,–,–,–,–,–,–,–,–
O=c1cc(N2CCOCC2)nc2n(Cc3cccc(Cl)c3Cl)c3ccccc3n12 [GSK2299009A],0,0,0,0,0,–,–,–,–,–,–,–,–,–
Cc1c(Cn2c3ccccc3n3c(=O)cc(N4CCOCC4)nc23)cccc1C(F)(F)F [GSK2306394A],0,0,0,0,0,–,–,–,–,–,–,–,–,–
Cc1c(Cn2c(C)c(C)n3c(=O)cc(N4CCOCC4)nc23)cccc1C(F)(F)F [GSK2328680_KCGS],0,0,0,0,0,–,–,–,–,–,–,–,–,–
O=c1cc(N2CCOCC2)nc2n(Cc3cccc4ccccc34)ccn12 [GSK2333389A],0,0,0,0,0,–,–,–,–,–,–,–,–,–
